Measurements as given in PMC3166231 (Inorganic chemistry, 2010).
Counter-ions that a name gives are not always drawn. Like-named read-outs stand apart in the source and are kept apart here. Marks after values point to notes of the source that are not given here.

Columns and labels:
[1] = ref [14]; cited from earlier work
[2] = pH = 7.4, [Fe3+] = 1.0 × 10^−6 mol dm^−3, [L] = 1.0 × 10^−5 mol dm^−3, cited from earlier work
[3] = Literature Fe; assay type: binding; details: refs [19], [21]; for Δ1–2: difference K1 − K2 of cited stepwise constants; for Δ2–3: difference K2 − K3 of cited stepwise constants
[4] = cited from earlier work; for pFe: bidentate donor group, ref [17]–[20]; for K2 (proton independent stepwise formation constant): second ligand; for K3 (proton independent stepwise formation constant): third ligand

Compound: Oc1cccnc1O [3-hydroxy-2-pyridinone]
- pKa of the 3-hydroxy-2-pyridinone donor group alone [1]: 8.66

Compound: CC(=O)N(O)CCCCCNC(=O)CCC(=O)N(O)CCCCCNC(=O)CCC(=O)N(O)CCCCCN [Deferrioxamine B, desferrioxamine B mesylate]
- pFe ([2]; ref [67]): 26.6 ^h

Compound: Oc1ccccc1O [catechol]
- Δ1–2 [3]: 4.9
- Δ2–3 [3]: 6.1
- pFe [4]: 15.1
- K2 (proton independent stepwise formation constant) ([4]; iron complex, ref [19], [21]): 15.5
- K3 (proton independent stepwise formation constant) ([4]; iron complex, ref [19], [21]): 9.4

Compound: O=C(O)c1ccc(-n2nc(-c3ccccc3O)nc2-c2ccccc2O)cc1 [Deferasirox, deferasirox]
- pFe ([2]; ref [65]): 23.5 ^d

Compound: O=c1[nH]cccc1O [3,2-HOPO]
- Δ1–2 [3]: 1.71
- Δ2–3 [3]: 1.76
- pFe [4]: 16.26
- K1 (proton independent stepwise formation constant) ([4]; iron complex, first ligand, ref [19], [21]): 11.48
- K2 (proton independent stepwise formation constant) ([4]; iron complex, ref [19], [21]): 9.77
- K3 (proton independent stepwise formation constant) ([4]; iron complex, ref [19], [21]): 8.01

Compound: Transferrin: iron transport protein used as pFe comparison
- pFe ([2]; ref [66]): 23.6 ^e

Compound: Cn1cccc(O)c1=O [1-methyl-3-hydroxypyridin-2-one]
- pFe ([2]; ref [63]): 16 ^b

Compound: Cc1c(O)c(=O)ccn1C [Deferiprone, 1,2-dimethyl-3-hydroxy-4-pyridinone]
- pFe ([2]; ref [64]): 19.4 ^c
